Some results are limits rather than exact numbers.

As a reminder, the Kd is the constant that tells how readily two partners part at equilibrium. Read a high Kd as lower affinity.

One test has as its target T1, FLT3 (Homo sapiens, UniProt P36888).
T1 construct: made in house; host or cells: T7 bacteriophage display
T1 sequence (P36888 27-993): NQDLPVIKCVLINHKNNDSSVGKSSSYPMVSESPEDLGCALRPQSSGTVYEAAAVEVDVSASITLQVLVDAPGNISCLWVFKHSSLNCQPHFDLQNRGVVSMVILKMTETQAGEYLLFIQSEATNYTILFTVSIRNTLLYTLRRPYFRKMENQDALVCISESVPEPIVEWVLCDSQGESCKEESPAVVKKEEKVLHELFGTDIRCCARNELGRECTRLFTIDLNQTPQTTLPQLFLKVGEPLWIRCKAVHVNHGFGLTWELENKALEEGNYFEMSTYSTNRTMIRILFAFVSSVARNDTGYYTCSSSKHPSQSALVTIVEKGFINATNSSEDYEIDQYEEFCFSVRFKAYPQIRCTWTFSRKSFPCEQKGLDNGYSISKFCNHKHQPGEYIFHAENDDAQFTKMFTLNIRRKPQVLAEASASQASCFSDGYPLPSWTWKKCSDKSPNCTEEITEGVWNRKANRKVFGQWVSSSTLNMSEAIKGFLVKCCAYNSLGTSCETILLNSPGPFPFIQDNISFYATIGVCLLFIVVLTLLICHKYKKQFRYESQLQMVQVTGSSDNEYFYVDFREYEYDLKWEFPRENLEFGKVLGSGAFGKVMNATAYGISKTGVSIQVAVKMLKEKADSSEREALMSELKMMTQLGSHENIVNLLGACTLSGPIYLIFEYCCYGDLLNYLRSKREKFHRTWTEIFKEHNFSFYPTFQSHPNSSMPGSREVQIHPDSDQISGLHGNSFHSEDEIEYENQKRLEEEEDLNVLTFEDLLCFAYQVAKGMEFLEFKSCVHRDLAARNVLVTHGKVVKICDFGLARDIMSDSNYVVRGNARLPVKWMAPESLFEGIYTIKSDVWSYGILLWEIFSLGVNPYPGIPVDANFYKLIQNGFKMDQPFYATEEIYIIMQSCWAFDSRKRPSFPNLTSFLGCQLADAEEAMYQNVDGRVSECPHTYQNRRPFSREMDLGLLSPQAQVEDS
The test is described as follows: FLT3(DKIN) phage-display competitive binding assay. An excerpt:
(§1) Methods for measuring binding affinities for interactions between small molecules and kinases including FLT3, c-KIT, ABL(T334I) [a.k.a. ABL(T315I)], VEGFR-2 (a.k.a. KDR), and EGFR are described in detail in U.S. application Ser. No. 10/873,835, which is incorporated by reference herein in its entirety. The components of the assays include human kinases expressed as fusions to T7 bacteriophage particles and immobilized ligands that bind to the ATP site of the kinases. […] If the test compound binds the kinase it competes with the immobilized ligand and prevents binding to the solid support. […] The results are read out by quantitating the amount of fusion protein bound to the solid support, which is accomplished by either traditional phage plaque assays or by quantitative PCR (qPCR) using the phage genome as a template. […] The concentration of test molecule that reduces the number of phage bound to the solid support by 50% is equal to the Kd for the interaction between the kinase and the test molecule. Typically, data are collected for twelve concentrations of test compound and, the resultant binding curve is fit to a non-cooperative binding isotherm to calculate Kd.
(§2) Described in the exemplary assays below is data from binding with varying kinases. […] The term “ND” represents non-determined values.

Another test deals with T2, PDGFR-β (Homo sapiens, UniProt P09619).
T2 construct: made in house; host or cells: T7 bacteriophage display
T2 sequence (P09619 33-1106): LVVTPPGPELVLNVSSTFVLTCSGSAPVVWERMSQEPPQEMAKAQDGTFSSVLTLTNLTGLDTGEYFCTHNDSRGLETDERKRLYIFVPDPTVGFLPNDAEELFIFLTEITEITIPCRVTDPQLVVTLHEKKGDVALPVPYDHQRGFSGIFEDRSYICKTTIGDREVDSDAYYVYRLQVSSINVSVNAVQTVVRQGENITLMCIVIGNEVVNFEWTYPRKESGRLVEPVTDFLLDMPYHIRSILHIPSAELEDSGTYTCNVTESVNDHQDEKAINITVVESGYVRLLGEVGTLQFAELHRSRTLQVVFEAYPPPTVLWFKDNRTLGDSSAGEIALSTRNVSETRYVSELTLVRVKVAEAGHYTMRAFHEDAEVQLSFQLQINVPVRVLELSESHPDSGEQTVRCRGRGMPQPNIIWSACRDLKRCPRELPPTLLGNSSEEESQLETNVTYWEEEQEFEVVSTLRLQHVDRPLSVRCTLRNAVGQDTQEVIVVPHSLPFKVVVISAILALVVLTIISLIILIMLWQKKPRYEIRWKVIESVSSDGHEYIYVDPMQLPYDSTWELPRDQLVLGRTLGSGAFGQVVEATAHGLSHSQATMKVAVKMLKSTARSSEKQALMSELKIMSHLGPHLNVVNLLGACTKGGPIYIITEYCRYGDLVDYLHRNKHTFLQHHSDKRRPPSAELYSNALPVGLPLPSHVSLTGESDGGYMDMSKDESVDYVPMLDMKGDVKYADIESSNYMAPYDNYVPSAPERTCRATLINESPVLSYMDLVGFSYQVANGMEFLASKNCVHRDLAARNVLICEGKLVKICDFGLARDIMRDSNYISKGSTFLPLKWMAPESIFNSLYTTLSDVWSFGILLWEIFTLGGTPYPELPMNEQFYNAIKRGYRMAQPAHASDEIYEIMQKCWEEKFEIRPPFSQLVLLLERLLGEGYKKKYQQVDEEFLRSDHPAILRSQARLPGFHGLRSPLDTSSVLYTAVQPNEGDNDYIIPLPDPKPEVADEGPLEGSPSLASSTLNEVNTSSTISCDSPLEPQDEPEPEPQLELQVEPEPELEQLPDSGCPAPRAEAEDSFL
As to the kind of experiment: PDGFR-β (DKIN) phage-display competitive binding assay. On the procedure:
as §2
Kd values for the interactions between PDGFR-β and candidate small molecule ligands were measured by a phage-display-based competitive binding assay that is described in detail in U.S. Ser. No. 10/406,797 filed 2 Apr. 2003 and incorporated herein by reference, Briefly, T7 phage displaying human PDGFR-β were incubated with an affinity matrix coated with known PDGFR-β inhibitor in the presence of various concentrations of the soluble competitor molecules. […] The Kd for the interaction between the soluble competitor molecule and PDGFR-β is equal to the concentration of soluble competitor molecule that causes a 50% reduction in the number of phage recovered in the eluate compared to a control sample lacking soluble competitor. Since this assay is generic, and any molecule can be used as a soluble competitor, we have determined Kd values for the interaction between PDGFR-β and several small molecules, including those shown below.

Another test addresses T3, ABL1 (Homo sapiens, UniProt P00519).
T3 construct: made in house; host or cells: T7 bacteriophage display
The test is described as follows: ABL1 phage-display competitive binding assay.
Excerpt: as §1, §2

The next test addresses T4, VEGFR2 (Homo sapiens, UniProt P35968).
T4 construct: made in house; host or cells: T7 bacteriophage display
The test is described as follows: VEGFR2(DKIN) phage-display competitive binding assay.
Excerpt: as §1, §2

In another test the test system is MV4,11 cells. The test is described as follows: FLT3 assay using MV4,11 cells (cell proliferation, MTS). In kind it is cell-based. The note with it: Homo sapiens, MV 4,11 cells, 0.5% serum, read-out: (MV 4,11) Cell Proliferation Assay with 0.5% Serum IC50 (nM) “CS0001”. On the procedure: The ability of FLT3 kinase inhibitors to inhibit cellular proliferation was also examined. MV4:11 was a cell line derived from a patient with acute myelogenous leukemia. It expressed a mutant FLT3 protein that was constitutively active. […] Inhibition of FLT3 kinase activity prevented proliferation of these cells, and thus the MV4:11 cell line can be used a model for cellular activity of small molecule inhibitors of FLT3.
FLT3 assay using MV4,11 cells
MV4,11 cells were grown in an incubator @ 37° C. in 5% CO2 in Medium 2 (RPMI, 10% FBS, 4 mM glutamine, Penn/Strep). The cells were counted daily and the cell density was kept between 1e5 and 8e5 cells/ml.
Day One: Enough cells were harvested for experiments to be conducted in 50 ml conical tubes. The harvested cells were spun at 500 g for 5 min at 4° C., the supernatant was then aspirated and the cells were resuspended in the starting volume of 1×PBS. The cells were again spun at 500 g for 5 min at 4° C. and the supernatant again aspirated. […]
Day Two: The cells were counted and enough medium 3 was added to decrease density to 2e5 cells/ml. 50 ul (10,000 cells) was aliquoted into each well of a 96 well optical plate using multichannel pipetman. The compound plate was then set up by aliquoting 3 μl of negative control (DMSO) into column 1 of a 96 well 300 ul polypropylene plate, aliquoting 3 μl of positive control (10 mM AB20121) into column 12 of plate, and aliquoting 3 μl of appropriate compounds from serial dilutions into columns 2-11. To each well, 150 μl of Medium 3 was added and 50 μl of compound/medium mixture from compound plate into rows of optical plate in duplicate. The cells were then incubated at @ 37° C. in 5% CO2 for 3 days.
Day Five: MTS was thawed in a H2O bath. 20 μl of MTS was added to each well of optical plate and the cells were incubated @ 37° C. in 5% CO2 for 2 hours. The plate was then placed on a plate shaker for 30 seconds on high speed.

Test [1] deals with T5, inactive form of KIT, which contains the autoinhibitory juxtamembrane domain (Homo sapiens, UniProt P10721).
T5 construct: made in house; host or cells: T7 bacteriophage display
T5 sequence (P10721 546-976 limits assumed): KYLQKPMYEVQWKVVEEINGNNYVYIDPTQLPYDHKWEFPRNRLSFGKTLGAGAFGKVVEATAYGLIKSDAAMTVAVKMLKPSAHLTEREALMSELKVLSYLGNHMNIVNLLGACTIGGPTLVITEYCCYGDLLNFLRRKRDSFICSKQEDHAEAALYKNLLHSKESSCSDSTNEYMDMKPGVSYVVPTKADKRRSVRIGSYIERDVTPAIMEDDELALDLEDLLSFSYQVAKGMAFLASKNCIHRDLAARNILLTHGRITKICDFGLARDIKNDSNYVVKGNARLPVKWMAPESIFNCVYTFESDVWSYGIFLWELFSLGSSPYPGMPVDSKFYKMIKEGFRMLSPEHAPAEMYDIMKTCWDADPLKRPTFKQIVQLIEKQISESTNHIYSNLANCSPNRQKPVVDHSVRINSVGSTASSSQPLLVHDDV
The test is described as follows: KIT (DKIN) Binding Assay. The note with it: inactive form of KIT with autoinhibitory juxtamembrane domain.
Excerpt: as §1, §2

T4 sequence (P35968 20-1356): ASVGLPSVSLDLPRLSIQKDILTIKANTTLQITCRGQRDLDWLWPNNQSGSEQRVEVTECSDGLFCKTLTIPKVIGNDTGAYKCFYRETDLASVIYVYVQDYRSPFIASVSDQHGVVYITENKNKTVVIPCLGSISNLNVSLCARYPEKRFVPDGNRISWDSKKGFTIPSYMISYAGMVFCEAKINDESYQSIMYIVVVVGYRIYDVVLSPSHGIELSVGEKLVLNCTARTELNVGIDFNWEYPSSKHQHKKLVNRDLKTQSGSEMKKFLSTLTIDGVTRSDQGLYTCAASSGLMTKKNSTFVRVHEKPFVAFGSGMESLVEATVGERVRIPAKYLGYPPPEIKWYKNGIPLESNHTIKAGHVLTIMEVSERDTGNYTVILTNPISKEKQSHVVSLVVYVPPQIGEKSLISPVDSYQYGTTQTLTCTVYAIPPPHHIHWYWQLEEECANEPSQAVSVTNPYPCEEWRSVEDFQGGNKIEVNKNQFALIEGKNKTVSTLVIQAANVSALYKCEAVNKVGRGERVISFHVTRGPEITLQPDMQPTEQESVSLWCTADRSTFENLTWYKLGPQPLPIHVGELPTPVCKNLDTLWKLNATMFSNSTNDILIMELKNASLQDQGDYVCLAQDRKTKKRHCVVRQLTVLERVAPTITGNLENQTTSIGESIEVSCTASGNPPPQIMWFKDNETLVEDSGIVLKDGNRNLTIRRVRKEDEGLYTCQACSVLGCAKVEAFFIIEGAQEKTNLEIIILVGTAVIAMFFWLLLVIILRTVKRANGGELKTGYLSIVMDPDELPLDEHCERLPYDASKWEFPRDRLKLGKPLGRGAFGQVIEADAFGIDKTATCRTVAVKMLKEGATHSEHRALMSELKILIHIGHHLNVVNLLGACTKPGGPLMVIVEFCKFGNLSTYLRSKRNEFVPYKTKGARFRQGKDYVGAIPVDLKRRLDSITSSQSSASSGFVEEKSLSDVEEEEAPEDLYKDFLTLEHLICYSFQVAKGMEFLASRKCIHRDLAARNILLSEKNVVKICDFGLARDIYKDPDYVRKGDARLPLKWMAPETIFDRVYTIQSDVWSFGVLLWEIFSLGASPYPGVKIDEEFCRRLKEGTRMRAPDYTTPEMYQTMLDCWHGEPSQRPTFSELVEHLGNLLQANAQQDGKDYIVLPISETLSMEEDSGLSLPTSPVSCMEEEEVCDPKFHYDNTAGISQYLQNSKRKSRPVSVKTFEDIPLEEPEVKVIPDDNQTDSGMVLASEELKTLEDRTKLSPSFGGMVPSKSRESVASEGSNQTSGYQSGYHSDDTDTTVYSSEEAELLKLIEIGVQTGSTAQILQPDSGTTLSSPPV
T3 sequence (P00519 whole entry): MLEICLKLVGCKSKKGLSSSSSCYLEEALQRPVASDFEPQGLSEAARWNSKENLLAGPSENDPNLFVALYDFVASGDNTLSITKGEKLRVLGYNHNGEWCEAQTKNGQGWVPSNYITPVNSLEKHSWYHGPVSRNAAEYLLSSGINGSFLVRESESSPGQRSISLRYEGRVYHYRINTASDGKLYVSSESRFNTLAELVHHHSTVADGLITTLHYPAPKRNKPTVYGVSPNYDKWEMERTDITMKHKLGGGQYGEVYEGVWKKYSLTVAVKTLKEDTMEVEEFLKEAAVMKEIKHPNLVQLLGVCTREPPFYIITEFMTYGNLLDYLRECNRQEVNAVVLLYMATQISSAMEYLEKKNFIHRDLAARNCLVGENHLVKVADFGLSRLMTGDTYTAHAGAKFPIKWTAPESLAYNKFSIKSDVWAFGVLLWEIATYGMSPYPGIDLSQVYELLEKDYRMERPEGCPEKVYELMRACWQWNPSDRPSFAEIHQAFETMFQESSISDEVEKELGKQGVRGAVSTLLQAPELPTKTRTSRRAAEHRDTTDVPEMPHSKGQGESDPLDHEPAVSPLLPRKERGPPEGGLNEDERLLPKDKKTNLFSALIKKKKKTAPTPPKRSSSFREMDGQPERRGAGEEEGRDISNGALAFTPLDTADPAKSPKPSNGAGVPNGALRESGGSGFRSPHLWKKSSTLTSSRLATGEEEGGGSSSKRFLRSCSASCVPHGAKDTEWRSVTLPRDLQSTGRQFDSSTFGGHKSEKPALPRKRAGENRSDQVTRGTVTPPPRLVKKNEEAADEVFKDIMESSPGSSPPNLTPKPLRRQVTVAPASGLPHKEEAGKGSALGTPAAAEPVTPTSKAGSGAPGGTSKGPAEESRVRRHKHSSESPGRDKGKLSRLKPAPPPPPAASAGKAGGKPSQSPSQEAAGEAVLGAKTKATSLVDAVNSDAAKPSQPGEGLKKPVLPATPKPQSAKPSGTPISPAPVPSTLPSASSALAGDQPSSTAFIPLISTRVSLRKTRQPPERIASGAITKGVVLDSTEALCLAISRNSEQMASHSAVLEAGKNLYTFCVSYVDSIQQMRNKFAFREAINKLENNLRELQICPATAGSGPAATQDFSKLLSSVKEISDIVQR

`Cc1ccc(Sc2ncnc3[nH]c(-c4ccc(O)cc4)cc23)cc1` [Compound L9]: the Kd at FLT3 lay within 100 to 1000 nM; on PDGFR-β, 1000 to 10000 nM; at ABL1, 100 to 1000 nM; on VEGFR2, 100 to 1000 nM.
On to `COc1ccc(-c2cc3c(Oc4cccc(OC)c4)ncnc3[nH]2)cc1` [Compound D7], for which, at PDGFR-β, the dissociation constant Kd lay in the range of 100 to 1000 nM.
Regarding `Cc1ccc(-c2cc3c(Sc4cccc(F)c4)ncnc3[nH]2)cc1` [Compound J17], the dissociation constant Kd at ABL1 was in the range of 1000 to 10000 nM.
`Oc1ccc(-c2cc3c(Sc4ccc(F)cc4)ncnc3[nH]2)cc1` [Compound L8] gave a Kd at VEGFR2 of more than 10000 nM.
On FLT3, `COc1ccc(-c2cc3c(Sc4ccc(C)cc4)ncnc3n2C(C)C)cc1` [Compound O14] displayed a Kd of 1000 to 10000 nM.
Consider `COc1ccc(-c2cc3c(Sc4ccccc4)ncnc3n2C(C)C)cc1` [Compound O10], for which the Kd at FLT3 was in the range of 100 to 1000 nM.
Regarding `COc1ccc(-c2cc3c(Sc4ccc(Cl)cc4)ncnc3[nH]2)cc1` [Compound J12], the Kd at PDGFR-β lay in the range of 1000 to 10000 nM.
Turning to `COc1ccc(-c2cc3c(Sc4ccc(C)cc4)ncnc3n2C)cc1` [Compound O11], the equilibrium dissociation constant (Kd) on FLT3 lay within 100 to 1000 nM.
Molecule `Oc1ccc(-c2cc3c(Sc4ccc(Cl)cc4)ncnc3[nH]2)cc1` [Compound L7] had an equilibrium dissociation constant (Kd) at VEGFR2 of 1000 to 10000 nM.
For the molecule `CC(C)Oc1ccc(-c2cc3c(Sc4ccccc4)ncnc3n2C(C)C)cc1` [Compound O9], the dissociation constant (Kd) at FLT3 was 100 to 1000 nM.
Take `COc1ccc(-c2cc3c(Oc4cccc(C)c4)ncnc3[nH]2)cc1` [Compound D8]: at PDGFR-β, the dissociation constant Kd lay within 1000 to 10000 nM.
Regarding `COc1ccc(-c2cc3c(Sc4ccccc4)ncnc3[nH]2)cc1` [Compound J16], the equilibrium dissociation constant (Kd) on FLT3 fell in the range of 100 to 1000 nM; at PDGFR-β it was 100 to 1000 nM; in test [1], 1 to 10 µM. Also, the IC50 with MV4,11 cells is less than 100 nM.
Molecule `Cc1ccc(Sc2ncnc3c2cc(-c2ccc(OC(C)C)cc2)n3C(C)C)cc1` [Compound O13] registered a Kd on FLT3 of 1000 to 10000 nM.
With `COc1ccc(-c2cc3c(Sc4ccc(C)cc4)ncnc3[nH]2)cc1` [Compound J14], the dissociation constant Kd on PDGFR-β and at VEGFR2 was 100 to 1000 nM throughout.
Take `Clc1ccccc1Sc1ncnc2[nH]ccc12` [Compound F1, 4-(2-Chloro-phenylsulfanyl)-7H-pyrrolo[2,3-d]pyrimidine]: the Kd at FLT3 was more than 10000 nM.
As to `COc1cccc(Sc2ncnc3[nH]c(-c4cccc(OC)c4)cc23)c1` [Compound J26], at ABL1, the dissociation constant (Kd) was in the range of 100 to 1000 nM.
`CCOc1ccc(-c2cc3c(Sc4ccccc4)ncnc3n2CC)cc1` [Compound O8]: the Kd at FLT3 was 100 to 1000 nM.
`COc1ccc(-c2cc3c(Oc4ccc(Cl)cc4)ncnc3[nH]2)cc1` [Compound D11]: the dissociation constant Kd at PDGFR-β lay within 100 to 1000 nM.
Turning to `Cc1cccc(Sc2ncnc3[nH]c(-c4ccc(O)cc4)cc23)c1` [Compound L5], the Kd on VEGFR2 is more than 10000 nM.
Take `COc1cccc(-c2cc3c(Oc4ccccc4)ncnc3[nH]2)c1` [Compound D24]: the dissociation constant (Kd) at FLT3 is 100 to 1000 nM; on PDGFR-β, 1000 to 10000 nM.
As to `COc1cccc(Oc2ncnc3[nH]c(-c4ccc(O)cc4)cc23)c1` [Compound E4], on VEGFR2, the equilibrium dissociation constant (Kd) was 1000 to 10000 nM.
For the molecule `COc1cccc(Sc2ncnc3[nH]c(-c4ccc(O)cc4)cc23)c1` [Compound L4], the Kd on ABL1 and at VEGFR2 was 100 to 1000 nM in each case.
As for `COc1ccc(-c2cc3c(Oc4ccc(F)cc4)ncnc3[nH]2)cc1` [Compound D13], the dissociation constant (Kd) on FLT3 and on PDGFR-β was 100 to 1000 nM each time.
Consider `Cc1cc(C)cc(Sc2ncnc3[nH]c(-c4ccc(O)cc4)cc23)c1` [Compound J18], for which the Kd on ABL1 was in the range of 1000 to 10000 nM.
Take `COc1ccc(-c2cc3c(Sc4cc(C)cc(C)c4)ncnc3[nH]2)cc1` [Compound J5]: the Kd at FLT3 was more than 10000 nM. The IC50 in the test on MV4,11 cells is less than 100 nM.
On PDGFR-β, `COc1cccc(-c2cc3c(Oc4ccc(Cl)cc4)ncnc3[nH]2)c1` [Compound D22] returned an equilibrium dissociation constant (Kd) of 100 to 1000 nM.
As to `COc1ccc(-c2cc3c(Sc4ccc(F)c(Cl)c4)ncnc3[nH]2)cc1` [Compound J37], the equilibrium dissociation constant (Kd) on FLT3 and at PDGFR-β was 100 to 1000 nM each time. Besides, the IC50 in the test with MV4,11 cells was in the range of 100 to 1000 nM.
At FLT3, `CCOc1ccc(-c2cc3c(Sc4ccc(C)cc4)ncnc3n2CC)cc1` [Compound O12] gave a dissociation constant Kd of 100 to 1000 nM.
`Clc1ccc(Sc2ncnc3c2[nH]c2ccccc23)cc1Cl` [Compound K5]: the IC50 with MV4,11 cells was more than 10000 nM.
Take `Oc1ccc(-c2cc3c(Sc4ccccc4)ncnc3[nH]2)cc1` [Compound L10]: at VEGFR2, the Kd is more than 10000 nM.
On to `COc1ccc(-c2cc3c(Sc4ccccc4)ncnc3n2C)cc1` [Compound O7], for which the Kd on FLT3 lay in the range of 100 to 1000 nM.
`COc1ccc(-c2cc3c(Sc4ccc(Cl)c(Cl)c4)ncnc3[nH]2)cc1` [Compound J3] returned a Kd on ABL1 of less than 100 nM.
In the case of `COc1ccc(-c2cc3c(Oc4ccc(C)cc4)ncnc3[nH]2)cc1` [Compound D14], the Kd on FLT3 and on PDGFR-β was 1000 to 10000 nM in each case.
`COc1ccc(-c2cc3c(Sc4cccc(OC)c4)ncnc3[nH]2)cc1` [Compound J9]: on ABL1, the Kd is 100 to 1000 nM.
